Assays:
[1] = target: human Lck kinase; assay: Lck inhibition assay (radioactivity-based assay A or spectrophotometric assay B); format: biochemical
Protocol: The compounds of this invention can be evaluated as inhibitors of human Lck kinase using either a radioactivity-based assay or spectrophotometric assay.
(§1) The compounds are assayed as inhibitors of full length bovine thymus Lck kinase (from Upstate Biotechnology, cat. no. 14-106) expressed and purified from baculo viral cells. Lck kinase activity is monitored by following the incorporation of ^33P from ATP into the tyrosine of a random poly Glu-Tyr polymer substrate of composition, Glu:Tyr=4:1 (Sigma, cat. no. P-0275). The following are the final concentrations of the assay components: 0.025 M HEPES, pH 7.6, 10 mM MgCl2, 2 mM DTT, 0.25 mg/ml BSA, 10 μM ATP (1-2 μCi ^33P-ATP per reaction), 5 mg/ml poly Glu-Tyr, and 1-2 units of recombinant human […] kinase. In a typical assay, all the reaction components with the exception of ATP are pre-mixed and aliquoted into assay plate wells. […] The plates are sealed and the amount of radioactivity associated with the filters is quantified on a TopCount scintillation counter. The radioactivity incorporated is plotted as a function of the inhibitor concentration. […]
(§2) In a typical assay, all the reaction components with the exception of ATP are pre-mixed and aliquoted into assay plate wells. […] The absorbance change at 340 nm with time, the rate of the reaction, is monitored on a molecular devices plate reader. […]

[2] = target: T1, human Src kinase (Homo sapiens, UniProt P12931); assay: Src inhibition assay (radioactivity-based assay A or spectrophotometric assay B); format: biochemical
T1 construct: full length recombinant human Src kinase (from Upstate Biotechnology, cat. no. 14-117); purchased Upstate Biotechnology 14-117; host or cells: baculovirus-infected cells ('baculo viral cells')
T1 sequence (P12931 whole entry): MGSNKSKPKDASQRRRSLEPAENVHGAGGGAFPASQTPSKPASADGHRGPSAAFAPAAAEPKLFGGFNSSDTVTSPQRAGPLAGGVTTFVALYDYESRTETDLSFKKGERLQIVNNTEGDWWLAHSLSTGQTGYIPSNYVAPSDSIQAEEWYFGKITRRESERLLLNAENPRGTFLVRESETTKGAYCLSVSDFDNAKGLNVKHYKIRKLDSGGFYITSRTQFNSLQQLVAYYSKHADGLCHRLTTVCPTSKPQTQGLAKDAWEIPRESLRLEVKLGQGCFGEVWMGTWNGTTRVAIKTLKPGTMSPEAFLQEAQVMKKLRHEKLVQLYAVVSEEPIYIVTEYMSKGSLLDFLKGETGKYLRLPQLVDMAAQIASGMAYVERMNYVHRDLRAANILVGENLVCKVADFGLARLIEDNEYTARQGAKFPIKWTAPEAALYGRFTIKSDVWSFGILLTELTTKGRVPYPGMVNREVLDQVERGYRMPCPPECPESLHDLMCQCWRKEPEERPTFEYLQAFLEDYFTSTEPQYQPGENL
Source text: The compounds of this invention can be evaluated as inhibitors of human Src kinase using either a radioactivity-based assay or spectrophotometric assay.
as §1, with “compounds can be” for “compounds are”, “length recombinant human Src” for “length bovine thymus Lck”, “no. 14-117)” for “no. 14-106)”, “cells. Src” for “cells. Lck”, “components: 0.05” for “components: 0.025”
as §2

Cc1nc(-c2cccs2)sc1-c1ccnc(Nc2ccc(S(N)(=O)=O)cc2)n1 [IIc-22]
Ki [1]: < 100 nM
Ki [2]: < 100 nM

Source: US7361665B2, “Inhibitors of c-Jun N-terminal kinases (JNK) and other protein kinases” (Vertex Pharmaceuticals Incorporated, priority 2002, dated 2008)
